This note sets out measurements from article PMC3665241, “Scaffold-Focused Virtual Screening: Prospective Application to the Discovery of TTK Inhibitors” (Journal of Chemical Information and Modeling, 2013).

Test [1] concerns the target T1, GST-tagged recombinant human full-length TTK protein kinase (Homo sapiens, UniProt P33981).
T1 construct: GST-tagged recombinant human full-length TTK protein kinase; purchased Invitrogen (Life Technologies Ltd., Paisley, U.K.)
T1 sequence (P33981 1-857): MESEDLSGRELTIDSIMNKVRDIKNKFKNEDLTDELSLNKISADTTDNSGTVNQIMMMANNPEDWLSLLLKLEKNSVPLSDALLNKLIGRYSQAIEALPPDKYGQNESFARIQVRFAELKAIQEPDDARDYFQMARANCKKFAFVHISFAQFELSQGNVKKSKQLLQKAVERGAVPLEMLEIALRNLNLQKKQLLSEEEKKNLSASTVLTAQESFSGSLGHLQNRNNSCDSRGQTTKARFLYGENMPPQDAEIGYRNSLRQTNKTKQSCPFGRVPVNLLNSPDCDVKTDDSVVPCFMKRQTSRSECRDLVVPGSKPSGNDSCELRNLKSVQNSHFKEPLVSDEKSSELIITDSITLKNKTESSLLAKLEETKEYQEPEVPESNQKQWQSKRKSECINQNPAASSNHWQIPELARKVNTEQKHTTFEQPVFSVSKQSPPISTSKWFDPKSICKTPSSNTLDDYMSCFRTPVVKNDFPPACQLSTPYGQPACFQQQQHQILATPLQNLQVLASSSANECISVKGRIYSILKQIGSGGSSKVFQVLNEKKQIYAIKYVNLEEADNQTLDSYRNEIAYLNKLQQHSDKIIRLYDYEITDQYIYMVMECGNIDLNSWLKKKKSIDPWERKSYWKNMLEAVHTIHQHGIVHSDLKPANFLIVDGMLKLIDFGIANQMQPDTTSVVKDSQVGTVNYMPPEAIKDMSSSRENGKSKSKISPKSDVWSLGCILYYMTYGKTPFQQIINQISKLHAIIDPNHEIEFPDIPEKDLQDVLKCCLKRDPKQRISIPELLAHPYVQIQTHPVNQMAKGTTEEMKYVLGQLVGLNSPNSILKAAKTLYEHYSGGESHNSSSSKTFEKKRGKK
Kind of test: TTK mobility shift microfluidics assay, single-concentration percent inhibition screen. Conditions: 12.5 nM TTK, 10 μM ATP, mean of duplicate ± SD; for inhibition at 40 µM: compound at 40 μM, 1% DMSO; for inhibition at 400 µM: compound at 400 μM (fragment-like, MW < 300 Da). The format is biochemical. On the procedure:
The TTK kinase activity was measured in a mobility shift microfluidics assay with the Caliper LabChip EZReader II (Caliper Life Sciences, Hopkinton, MA, U.S.A.). For the initial percent inhibition compound screen, all compounds were tested at 40 μM, and fragment-like compounds (MW < 300 Da) were also tested at 400 μM. A 2.14 μM stock of GST-tagged recombinant human full-length TTK protein kinase from Invitrogen (Invitrogen, Life Technologies Ltd., Paisley, U.K.) and custom synthesized peptide from Pepceuticals (Pepceuticals Ltd., Enderby, U.K.) with sequence 5-FAM-[…]-amide were used. […] For every 10 mL of stock buffer, one Roche EDTA free complete mini-protease inhibitor cocktail tablet (Roche, Basel, Switzerland) was added. TTK was used at a final concentration of 12.5 nM. The assay plate was sealed and incubated at room temperature for 60 min. The assay was stopped by addition of stop buffer which contained 100 mM HEPES (pH 7.3), 20 mM EDTA, and 0.05% (v/v) Brij-35. The assay plate was then analyzed using the EZReader II. Z′ for compounds at 40 μM was 0.48, and Z′ for compounds at 400 μM was 0.61.

Test [2] has as its target T1, GST-tagged recombinant human full-length TTK protein kinase. Kind of test: TTK mobility shift microfluidics assay, IC50 determination (3 nM TTK). It counts as biochemical. The settings on record: for IC50: 3 nM TTK, 10 μM ATP, duplicate on the same plate; for LE (ligand efficiency): from TTK IC50.

One may read the inhibition as the relative decrease from the control value, in per cent. A word on the IC50: it is the concentration needed to halve the response being measured. `COc1ccc(NC(=O)c2nc[nH]n2)cc1OC` [Compound 23]: in test [1], the inhibition at 40 µM stood at 23 ± 4.24% and the inhibition at 400 µM was 51 ± 1.41%. Further, the IC50 in test [2] (1% DMSO) was over 1000 µM.
As for `COc1ccc(Nc2cc(Cl)nc(N)n2)cc1OC` [Compound 19], in test [1], the inhibition at 40 µM is 65.5 ± 0.71% and the inhibition at 400 µM came out at 96.5 ± 0.71%. The IC50 in test [2] (1% DMSO) was 56.2 µM. Also, the “LE (ligand efficiency)” value in test [2] turned out to be 0.30.
In the case of `COc1ccc(Nc2cc(C)nc3ncnn23)cc1OC` [Compound 24], in test [1], the inhibition at 40 µM stood at 52% and the inhibition at 400 µM worked out at 34.5 ± 0.71%. Also, the IC50 in test [2] (1% DMSO) was over 1000 µM.
`COc1ccc(C(=O)c2oc3cc(NC(C)=O)ccc3c2C)cc1OC` [Compound 12]: the inhibition at 40 µM in test [1] came out at 68.5 ± 2.12%. Further, the IC50 in test [2] (1% DMSO) turned out to be 4.2 µM. The “LE (ligand efficiency)” value in test [2] was 0.28.
In the same order, the values of `COc1ccc(Nc2ncnc3sc(-c4ccccc4)cc23)cc1OC` [Compound 11] are 64 ± 1.41%, 2.1 µM and 0.30.
For `COc1ccc(Nc2ncnc3c2cnn3C)cc1OC` [Compound 16], in test [1], the inhibition at 40 µM came to 45.5 ± 2.12% and the inhibition at 400 µM worked out at 82.5 ± 0.71%. The IC50 in test [2] (1% DMSO) is 19.3 µM. The “LE (ligand efficiency)” value in test [2] came to 0.31.
Consider `c1cc2cnc3sccc3c2cn1` [Compound 3, Thieno[2,3-c][2,6]naphthyridine], for which, in test [1], the inhibition at 40 µM turned out to be 70% and the inhibition at 400 µM amounted to 105.5 ± 0.71%. Besides, the “LE (ligand efficiency)” value in test [2] is 0.45.
As to `COc1ccc(Nc2cc(C)nc(SC)n2)cc1OC` [Compound 15], in test [1], the inhibition at 40 µM was determined as 57.5 ± 2.12% and the inhibition at 400 µM amounted to 75.5 ± 0.71%. Moreover, the IC50 in test [2] (1% DMSO) amounted to 19.6 µM. The “LE (ligand efficiency)” value in test [2] amounted to 0.32.
Turning to `COc1ccc(Nc2ncnc3nc[nH]c23)cc1OC` [Compound 18], in test [1], the inhibition at 40 µM was 34 ± 2.83% and the inhibition at 400 µM turned out to be 67 ± 0.41%. Moreover, the IC50 in test [2] (1% DMSO) amounted to 40.9 µM. In addition, the “LE (ligand efficiency)” value in test [2] worked out at 0.30.
In the case of `N#Cc1ccccc1NC(=O)Cn1ncc2c1-c1ccccc1OC2` [Compound 10], the inhibition at 40 µM in test [1] came to 53.5 ± 0.71%.
Turning to `COc1ccc(Nc2nc(N)nc3nc[nH]c23)cc1OC` [Compound 13], in test [1], the inhibition at 40 µM was determined as 72 ± 1.41% and the inhibition at 400 µM was found to be 86 ± 0.41%. Moreover, the IC50 in test [2] (1% DMSO) turned out to be 7.7 µM. Besides, in test [2], the “LE (ligand efficiency)” value came to 0.33.
Take `c1cc2c(cn1)cnc1sccc12` [Compound 7, thieno[2,3-c][2,7]naphthyridine]: in test [1], the inhibition at 40 µM amounted to 51 ± 1.41% and the inhibition at 400 µM is 94.5 ± 2.12%. For the same compound, in test [2], the “LE (ligand efficiency)” value is listed as 0.42.
For `COc1ccc(Nc2ncnc3[nH]ncc23)cc1OC` [Compound 17], in test [1], the inhibition at 40 µM came out at 69% and the inhibition at 400 µM was found to be 67%. In addition, in test [2] (1% DMSO), the IC50 turned out to be 33.3 µM. For the same compound, in test [2], the “LE (ligand efficiency)” value is 0.31.
As for `COc1ccc(Nc2nc(Nc3ccc(OC)c(OC)c3)c3[nH]cnc3n2)cc1OC` [Compound 22], the inhibition at 40 µM in test [1] came out at 71.5 ± 2.12%. Besides, the IC50 in test [2] (1% DMSO) was under 0.025 µM.
For `COc1ccc(Nc2ccc3nnc(C(F)(F)F)n3n2)cc1OC` [Compound 21], in test [1], the inhibition at 40 µM was 59 ± 2.83%. The IC50 in test [2] (10% DMSO (asterisk)) is 90.1 µM. The “LE (ligand efficiency)” value in test [2] was determined as 0.23.
As to `COc1ccc(Nc2cc(-c3ccccc3)ncn2)cc1OC` [Compound 14], the inhibition at 40 µM in test [1] was determined as 68.5 ± 0.71%. In test [2] (1% DMSO), the IC50 is 9.9 µM. Also, the “LE (ligand efficiency)” value in test [2] is given as 0.30.
With `c1ccc2c(c1)[nH]c1cncnc12` [Compound 4, 5H-pyrimido[5,4-b]indole], in test [1], the inhibition at 40 µM came to 42.5 ± 0.71% and the inhibition at 400 µM stood at 63 ± 2.83%. Moreover, the “LE (ligand efficiency)” value in test [2] turned out to be 0.44.
For `COc1ccc(Nc2ccc3nnnn3n2)cc1OC` [Compound 20], in test [1], the inhibition at 40 µM was found to be 71.5 ± 0.71% and the inhibition at 400 µM amounted to 24.5 ± 2.12%. Besides, the IC50 in test [2] (10% DMSO (asterisk)) came out at 78.6 µM. For the same compound, the “LE (ligand efficiency)” value in test [2] is 0.28.
In the case of `c1cc2cnc3ccsc3c2cn1` [Compound 5, thieno[3,2-c][2,6]naphthyridine], in test [1], the inhibition at 40 µM came to 46 ± 1.41% and the inhibition at 400 µM turned out to be 65 ± 2.83%. Also, the “LE (ligand efficiency)” value in test [2] came out at 0.44.
